l = locked nucleic acid (LNA); d = 2'-deoxy (DNA)
What was measured:
hCD39 = biological target: T1, hCD39 (Homo sapiens, UniProt P49961); experiment: ATP degradation in JIYOYE cells after hCD39 knockdown (ATP Bioluminescence Assay); type: cell-based; conditions: 5 μM oligonucleotide 6 days or 20 μM ARL67156 1 h; 2 μM ATP added
T1 construct: endogenous in cells; host or cells: JIYOYE cells
T1 sequence (P49961 1-510): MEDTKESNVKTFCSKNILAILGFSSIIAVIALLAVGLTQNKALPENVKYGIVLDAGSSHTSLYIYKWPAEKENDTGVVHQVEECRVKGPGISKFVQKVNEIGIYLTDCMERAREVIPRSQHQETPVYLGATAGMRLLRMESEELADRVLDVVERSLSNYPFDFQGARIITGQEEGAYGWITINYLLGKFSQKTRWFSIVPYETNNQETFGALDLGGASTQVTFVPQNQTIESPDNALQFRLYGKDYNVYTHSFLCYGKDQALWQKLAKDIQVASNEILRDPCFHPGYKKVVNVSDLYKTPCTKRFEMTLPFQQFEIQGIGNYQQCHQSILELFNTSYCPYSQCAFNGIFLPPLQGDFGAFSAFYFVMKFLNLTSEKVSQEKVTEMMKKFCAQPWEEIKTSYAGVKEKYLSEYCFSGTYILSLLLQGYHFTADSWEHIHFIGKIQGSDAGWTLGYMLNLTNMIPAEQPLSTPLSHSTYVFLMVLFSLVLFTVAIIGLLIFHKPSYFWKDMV
Description: FIG. 10A-10C depict effects of hCD39 knockdown on viability and ATP concentration in JIYOYE cells. JIYOYE cells were treated with the indicated antisense oligonucleotide A04040H (SEQ ID No.3) or neg1 for 6 days in total at 5 μM. Medium was replaced with fresh oligonucleotide-containing medium after 3 days and hCD39 protein knockdown efficacy was analyzed on day 6 by flow cytometry. Residual hCD39 expression and viability of oligonucleotide-treated cells is depicted compared to untreated cells (FIG. 10A-10B). After 6 days, 20 μM of the CD39 small molecular inhibitor ARL67156 trisodium salt was added to no ASO treated cells and incubated for 1 h at 37° C. Then, 2 μM of ATP was added to cells or cell culture medium without cells from each condition and ATP concentration of cell supernatants or cell culture medium was determined after 30 min using the ATP Bioluminescence Assay Kit (Roche) (FIG. 10C).
Adenosine is one major immunosuppressive molecule generated during ATP degradation by hCD39. ATP can be detected by an ATP Bioluminescence Assay (ATP Bioluminescence Assay Kit CLS II; Roche). JIYOYE cells were treated with 5 μM antisense oligonucleotide A04040H (SEQ ID No. 3) or the negative control oligonucleotide neg1 for 6 days (3+3). After 3 days, RPMI-1640 medium was replaced with fresh RPMI-1640 medium containing 5 μM of oligonucleotide. Protein knockdown efficacy (FIG. 10A) and viability (FIG. 10B) were analyzed after 6 days by flow cytometry. […] The same day, cells that were not treated with any antisense oligonucleotide were incubated for 1 hr at 37° C. with 20 μM of the CD39 small molecular inhibitor ARL67156 trisodium salt (TOCRIS). Then, 2 μM of ATP was added to cells or cell culture medium without cells derived from each condition and ATP concentration was measured in the cell supernatants or in cell culture medium after 30 min. […] Table 14 presents the effect of hCD39 knockdown on relative ATP levels in the cell culture supernatants of JIYOYE cells: […]

human CD8+ T cells = experiment: Proliferation and absolute cell numbers of human CD8+ T cells in presence or absence of extracellular ATP; type: cell-based; conditions: 5 μM oligonucleotide 5 days or 20 μM ARL67156 24 h
Description: FIG. 12A-12C depict human CD8^+ T cells which were labelled with cell proliferation dye, activated with anti-CD3 and treated with 5 μM of the antisense oligonucleotide A04040H (black column) or the control oligonucleotide S6 (white column) for a total treatment time of 5 days. In the vehicle control (striped column), cells were activated with anti-CD3 only. Subsequently, 400 μM of ATP or vehicle were added to cells on day 3 and day 4 after start of oligonucleotide treatment. Furthermore, as additional control, the small molecular CD39-inhibitor ARL67156 trisodium salt was added at 20 μM to cells on day 4, for an incubation time of 24 h (checked column). On day 5 after start of oligonucleotide treatment, (FIG. 12A) CD39 protein expression, (FIG. 12B) proliferation and (FIG. 12C) absolute cell numbers of CD8^+ T cells were analyzed using Flow Cytometry. Depicted is the mean of triplicate wells+/−SD.
In cancer, ATP is released from tumor cells for example after cell death induced by chemotherapy or radiation therapy. Since the CD39-CD73 axis plays an important role for T cell function the effects of A04040H on T cell proliferation in the presence or absence of extracellular ATP were investigated. Human CD8^+ T cells were labelled with cell proliferation dye, activated with anti-CD3 and treated with 5 μM of the antisense oligonucleotide A04040H or the control oligonucleotide S6 for a total treatment time of 5 days. In the vehicle control, cells were activated with anti-CD3 only. Subsequently, 400 μM of ATP or vehicle were added to cells on day 3 and day 4 after start of oligonucleotide treatment. Furthermore, as additional control, the small molecular CD39-inhibitor ARL67156 trisodium salt was added at 20 μM to cells on day 4 for an incubation time of 24 h. On day 5 after start of oligonucleotide treatment, CD39 protein expression, proliferation, and absolute cell numbers of CD8^+ T cells were analyzed using Flow Cytometry.

mCD39 mRNA [1] = experiment: mCD39 mRNA knockdown efficacy screen in A20 cells (single dose, gymnotic delivery, QuantiGene Singleplex); type: cell-based, mouse; conditions: 10 μM, three days, normalized to HPRT1
mCD39 mRNA [2] = experiment: In vivo mCD39 mRNA knockdown in spleens of C57BL/6 mice; set-up: species or system mouse; conditions: day 26, compared to neg 1 treated mice
Description: FIGS. 15A and 15B depict CD39 mRNA expression levels in spleens from C57BL/6 mice treated by subcutaneous injections of either A04011MR or the negative control oligonucleotide neg1 at doses of 25 mg/kg or 10 mg/kg on days 1, 2, 3, 4, 5, 9, 12, 16, and 19 (5 mice/group). Expression values were normalized to expression values of the housekeeping gene HPRT1.
The potent mCD39 ASO A04011MR was selected and its in vivo knockdown capacity in C57BL/6 mice was analyzed. C57BL/6 mice were treated by subcutaneous injections of either A04011MR or the negative control oligonucleotide neg1 at doses of 25 mg/kg or 10 mg/kg on days 1, 2, 3, 4, 5, 9, 12, 16, and 19 (5 mice/group). Seven days after the last ASO treatment (day 26), mice were sacrificed and spleens were sampled for CD39 mRNA analysis. The results depicted in FIG. 15 show CD39 mRNA expression levels in spleens of A04011MR or neg1-treated mice.

mCD39 protein = experiment: In vivo mCD39 protein knockdown in tumor-infiltrating immune cells, syngeneic MC38 mouse tumor model; conditions: MC38 tumor-bearing C57BL/6 mice, 20, 10, 5 mg/kg subcutaneous, day 16, compared to the controls
Description: FIGS. 16A and 16B show CD39 protein expression on tumor infiltrating regulatory T cells (Tregs) (FIG. 16A) and tumor associated macrophages (TAMs) (FIG. 16B) from oligonucleotide-treated mice in relation to tumors of untreated mice.
The potent mCD39 antisense oligonucleotide A04011MR was selected and its in vivo knockdown capacity in a subcutaneous syngeneic murine tumor model was analyzed. Therefore, 5×10^5 MC38 wt tumor cells were injected subcutaneously into C57BL/6 mice. Once tumors reached sizes between 50-70 mm^3, mice were treated systemically by subcutaneous injections with different doses of A04011MR (20 mg/kg; 10 mg/kg; 5 mg/kg) or with the negative control oligonucleotide neg1 (20 mg/kg) on days 1, 2, 3, 4, 5, 9, and 12 (4 mice/per group). As additional control, MC-38 tumor-bearing mice were left untreated. Four days after the last treatment with antisense oligonucleotide (day 16), tumors were isolated in order to analyze CD39 protein expression in subtypes of tumor-infiltrating immune cells using flow cytometry. FIGS. 16A and 16B depict CD39 protein expression on tumor-infiltrating regulatory T cells (Tregs) (FIG. 16A) and tumor associated macrophages (TAMs) (FIG. 16B) from oligonucleotide-treated mice in relation to tumors of untreated mice.

hCD39 mRNA [3] = experiment: hCD39 mRNA knockdown efficacy screen in A-172 cells (single dose, gymnotic delivery, QuantiGene Singleplex); type: cell-based, human; conditions: 10 μM, 3 days, third screening round
Method in brief: (§1)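 Antisense oligonucleotides given once at 10 μM without transfection reagent (gymnotic) to HDLM-2 or A-172 cells for 3 days. hCD39 mRNA measured by QuantiGene Singleplex, normalized to HPRT1 and expressed relative to untreated cells; triplicate means.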

hCD39 mRNA [4] = experiment: hCD39 mRNA knockdown efficacy screen in HDLM-2 cells (single dose, gymnotic delivery, QuantiGene Singleplex); type: cell-based, human; conditions: 10 μM, 3 days, third screening round
Method in brief: as §1

hCD39 protein = hCD39 protein expression in primary human CD8+ and CD4+ T cells after oligonucleotide removal (flow cytometry); type: cell-based; conditions: 10 μM for six days with anti-CD3, compared to untreated control cells
Description: Thereafter, oligonucleotides and anti-CD3 were removed and hCD39 protein expression was analyzed by flow cytometry three, six, and eleven days after oligonucleotide removal. CD39 protein expression is depicted as mean fluorescence intensity (MFI) and was calculated by subtracting the MFI of the unspecific isotype control from the MFI of CD39. Depicted is the mean of duplicate wells+/−SD.
A04040H had shown very potent activity in suppressing hCD39 expression on mRNA- and protein-level in human cancer cell lines. In the next step, its activity in primary human T cells was investigated. Furthermore, the persistence of the effects after antisense oligonucleotide removal was examined. Therefore, CD8^+ and CD4^+ T cells were isolated from peripheral blood and activated for a total treatment time of six days with anti-CD3 in the presence of 10 μM of the hCD39 specific antisense oligonucleotide A04040H (black column) or the control oligonucleotide S6 (white column), which is not complementary to any human mRNA. […] Thereafter, oligonucleotides were removed and hCD39 protein expression was analyzed three, six, and eleven days after oligonucleotide removal by flow cytometry (FIG. 9).

[5] = absence of extracellular ATP, vs vehicle
[6] = supplementation with 400 μM of ATP

Row | Compound | Relative ATP levels in supernatants of JIYOYE cells 30 minutes after addition of ATP (vs. Medium control) (hCD39) | absolute cell numbers of CD8+ T cells (human CD8+ T cells; [5]) | proliferation of CD8+ T cells (human CD8+ T cells; [5]) | absolute numbers of CD8+ T cells (human CD8+ T cells; [6]) | proliferation of CD8+ T cells (human CD8+ T cells; [6]) | Relative mCD39 mRNA expression (compared to non-treated cells) (mCD39 mRNA [1]) | mCD39 mRNA levels in spleens (mCD39 mRNA [2]; 10 mg/kg subcutaneous) | mCD39 mRNA levels in spleens (mCD39 mRNA [2]; 25 mg/kg subcutaneous) | mCD39 protein expression on tumor associated macrophages (TAMs) (mCD39 protein) | mCD39 protein expression on tumor-infiltrating regulatory T cells (Tregs) (mCD39 protein) | Residual hCD39 mRNA expression relative to untreated cells (set as 1) (hCD39 mRNA [3]) | Residual hCD39 mRNA expression relative to untreated cells (set as 1) (hCD39 mRNA [4]) | hCD39 protein expression (MFI) after oligonucleotide removal (hCD39 protein)
1 | CCN(CC)c1ncnc2c1ncn2[C@@H]1O[C@H](COP(=O)(O)OP(=O)(O)C(Br)(Br)P(=O)(O)O)[C@@H](O)[C@H]1O [ARL67156] | 0.38 | no differences | no differences | significantly diminished | reduced proliferation |  |  |  |  |  |  |  | 
2 | +A*+G*+T*A*A*T*C*C*A*C*C*C*A*+T*+A*+G (antisense AGTAATCCACCCATAG; sugars from the 5' end l3 d10 l3, all phosphorothioate, methylation of C not given here) [A04011MR] |  |  |  |  |  | 0.01 | significantly reduced | significantly reduced | dose-dependently suppressed | dose-dependently suppressed |  |  | 
3 | +T*+C*+T*A*T*C*G*T*G*A*T*G*T*T*+T*+C*+T (antisense TCTATCGTGATGTTTCT; sugars from the 5' end l3 d11 l3, all phosphorothioate, methylation of C not given here) [S6] |  | no differences | no differences | significantly diminished | reduced proliferation |  |  |  |  |  | 0.95 | 0.95 | no inhibitory effect

— US11959083B2, “Immunosuppression-reverting oligonucleotides inhibiting the expression of CD39” (Secarna Pharmaceuticals GmbH & Co. KG, priority 2016, dated 2024)
